# B1: prolactin: hormone; prolactin enhancer, given as intraperitoneal ovine prolactin (protein, UniProt P01240 31-229, looked up)
# Prolactin: TPVCPNGPGNCQVSLRDLFDRAVMVSHYIHNLSSEMFNEFDKRYAQGKGFITMALNSCHTSSLPTPEDKEQAQQTHHEVLMSLILGLLRSWNDPLYHLVTEVRGMKGVPDAILSRAIEIEEENKRLLEGMEMIFGQVIPGAKETEPYPVWSGLPSLQTKDEDARHSAFYNLLHCLRRDSSKIDTYLKLLNCRIIYNNNC
# Experiments:
# [1] = test system: EMT-6 cells derived from a murine mammary sarcoma; assay: EMT-6 implanted tumor mouse model: PDT with EtNBS with or without timed prolactin (Examples 1-2); type: in vivo, Balb/c mice
# Procedure: Adult (6-7 wk old) male Balb/c mice were subcutaneously injected with EMT-6 cells derived from a murine mammary sarcoma (1.7×10^6 cells) on the hind quarter and were divided into four groups (n=10 per group) and treated as follows: Group 1 (D+L) received photodynamic therapy at 14 days after tumor inoculation. Photodynamic therapy consisted of subcutaneously injecting a benzophenothiazine photosensitizer (EtNBS, FIG. 7)(7.5 mg/kg of body weight) and 3 hrs later irradiating the tumor with 652 nm light at a power density of 150 mW/cm2 and a total energy of 100 J/cm^2. Group 2 (PRL) received intraperitoneal ovine prolactin (20 mcg/mouse) at 10 hours after light onset starting at 7 days after tumor inoculation and continuing for 14 days. Group 3 (D+L+PRL) received both PDT (as described above) and prolactin (as described above). Group 4 (CON) remained untreated (control). Fourteen days following PDT tumor volume was determined in all animals.
# Example 1 was repeated with different PDT power density and energy characteristics (for groups 2 and 3) which better optimize the PDT effect. […] Under these conditions, tumor “cure” (tumor-free for at least 90 days) of 4-8 mm diameter tumors can be achieved in 70-100% of the cases largely dependent upon the tumor size at the time of PDT. However, if intraperitoneal prolactin administration (20 mcg/mouse/day at 10 hours after light onset) is added to PDT treatment (starting from the day of tumor cell inoculation), then the tumor cure rate is 100%.
# The typical response observed using PDT alone with the PDT parameters employed are (in sequence): 1) an inflammation of the photoirradiated spot encompassing the tumor within about 30 minutes which increases to a maximum inflammation at about 3-5 hours; 2) inflammation completely subsides in 48-72 hours leaving noticeable tumor which takes 14 days to regress completely. Eschar formation occurs at 24-48 hours.
# At 4-7 days the irradiated area has healed completely. This response cannot be obtained with PDT or prolactin alone.
# EMT-6 cells [2] = assay: EMT-6 implanted tumor mouse model: PDT with EtNBS with or without bromocriptine (Example 4); type: in vivo, Balb/c mice; details: PDT alone (EtNBS 7.5 mg/kg sc, 652 nm, 50 mW/cm2, 100 J/cm^2)
# Procedure: Adult (6-7 wk old) male Balb/c mice are subcutaneously injected with EMT-6 cells (1.7×10^6 cells) on the hind quarter and are divided into four groups (n=10 per group) and are treated as follows: group 1 receives photodynamic therapy (PDT) at 14 days after tumor inoculation. PDT consists of subcutaneously injecting a benzophenothiazine photosensitizer (EtNBS)(7.5 mg/kg of body weight) and 3 hrs later irradiating the tumor with 652 nm light at a power density of 50 mW/cm2 and a total energy of 100 J/cm^2. Group 2 receives intraperitoneal bromocriptine (50 mcg/mouse) at 0 hours after light onset starting at 7 days after tumor inoculation and continuing for 14 days. Group 3 receives both PDT (as described above) and intraperitoneal bromocriptine (as described above). Group 4 remains untreated (control). Fourteen days following PDT tumor volume is determined in all animals.
# EMT-6 cells [3] = assay: EMT-6 implanted tumor mouse model: PDT with EtNBS with or without melatonin (Example 5); type: in vivo, Balb/c mice
# Procedure: Adult (6-7 wk old) male Balb/c mice are injected subcutaneously with EMT-6 cells (1.7×10^6 cells) on the hind quarter and are divided into four groups (n=10 per group) and are treated as follows: group 1 receives photodynamic therapy (PDT) at 14 days after tumor inoculation. PDT consists of subcutaneously injecting a benzophenothiazine photosensitizer (EtNBS)(7.5 mg/kg of body weight) and 3 hrs later irradiating the tumor with 652 nm light at a power density of 50 mW/cm^2 and a total energy of 100 J/cm^2. Group 2 receives intraperitoneal melatonin (8 mg/kg) at 10 hours after light onset starting at 7 days after tumor inoculation and continuing for 14 days. Group 3 receives both PDT (as described above) and intraperitoneal melatonin (as described above). Group 4 remains untreated (control). Fourteen days following PDT tumor volume is determined in all animals.
# EMT-6 cells [4] = assay: EMT-6 implanted tumor mouse model: PDT with EtNBS with or without bromocriptine and melatonin (Example 6); type: in vivo, Balb/c mice
# Procedure: Adult (6-7 wk old) male Balb/c mice are subcutaneously injected with EMT-6 cells (1.7×10^6 cells) on the hind quarter and are divided into four groups (n=10 per group) and are treated as follows: group 1 receives photodynamic therapy (PDT) at 14 days after tumor inoculation. PDT consists of subcutaneously injecting a benzophenothiazine photosensitizer (EtNBS)(7.5 mg/kg of body weight) and 3 hrs later irradiating the tumor with 652 nm light at a power density of 50 mW/cm^2 and a total energy of 100 J/cm^2. Group 2 receives intraperitoneal melatonin (8 mg/kg) at 10 hours after light onset and intraperitoneal bromocriptine (50 mcg/mouse) at 0 hours after light onset starting at 7 days after tumor inoculation and continuing for 14 days. Group 3 receives both PDT (as described above) and intraperitoneal bromocriptine and intraperitoneal melatonin (as described above). Group 4 remains untreated (control). Fourteen days following PDT tumor volume is determined in all animals.
# [5] = in vivo; cited from earlier work
# [6] = test system: EMT-6 cells derived from a murine mammary sarcoma; assay: EMT-6 implanted tumor mouse model: PDT with Dye 4-115 with or without timed prolactin (Example 3); type: in vivo, Balb/c mice
# Procedure: Adult (6-7 wk old) male Balb/c mice are subcutaneously injected with EMT-6 cells derived from a murine mammary sarcoma (1.7×10^6 cells) on the hind quarter and are divided into four groups (n=10 per group) and are treated as follows: group 1 receives photodynamic therapy (PDT) at 14 days after tumor inoculation. PDT consists of intravenously injecting a benzophenothiazine photosensitizer (Dye 4-115)(2.5 mg/kg of body weight) and 1 hr later irradiating the tumor with a broad wavelength light source (600-700 nm) at a power density of 50 mW/cm^2 and a total energy of 100 J/cm^2. Group 2 receives intraperitoneal ovine prolactin (20 mcg/mouse) at 10 hours after light onset starting at 7 days after tumor inoculation and continuing for 14 days. Group 3 receives both PDT (as described above) and prolactin (as described above). Group 4 remains untreated (control). Fourteen days following PDT tumor volume is determined in all animals.
# tumor burden = assay: Timed prolactin injections in tumor bearing mice; type: in vivo; details: circadian rhythms synchronized with a defined photoperiod; versus tumor bearing mice without timed prolactin injections
# body fat stores = details: cited from earlier work
# immune responses = details: timed daily administration within a specific window of time; no effect outside it; cited from earlier work
# [7] = PDT alone (EtNBS 7.5 mg/kg sc, 652 nm, 50 mW/cm^2, 100 J/cm^2)
# [8] = ip prolactin added to EtNBS PDT
# [9] = ip prolactin added to Dye 4-115 PDT
molecule,measurement,setting,value
CCNc1cc2sc3cc(=[N+](CC)CC)ccc-3nc2c2ccccc12.[Cl-] [EtNBS],"tumor ""cure"" (tumor-free for at least 90 days)","[1]; PDT alone (EtNBS 7.5 mg/kg sc, 652 nm, 50 mW/cm^2, 180 J), 4-8 mm diameter tumors",70-100%
same,onset of inflammation of the photoirradiated spot,[1]; PDT alone (EtNBS),≤ 30 min
same,time for noticeable tumor to regress completely,[1]; PDT alone (EtNBS),14 days
same,time of eschar formation,[1]; PDT alone (EtNBS),24 to 48 h
same,time of maximum inflammation,[1]; PDT alone (EtNBS),3 to 5 h
same,time until inflammation completely subsides,[1]; PDT alone (EtNBS),48 to 72 h
same,tumor volume fourteen days following PDT,EMT-6 cells [2],significantly reduced
same,tumor volume fourteen days following PDT,EMT-6 cells [3]; [7],significantly reduced
same,tumor volume fourteen days following PDT,EMT-6 cells [4]; [7],significantly reduced
COc1ccc2[nH]cc(CCNC(C)=O)c2c1 [melatonin],tumor volume fourteen days following PDT,EMT-6 cells [3]; EtNBS PDT plus ip melatonin,significantly reduced or entirely eradicated
same,tumor volume fourteen days following PDT,"EMT-6 cells [3]; ip melatonin alone, 8 mg/kg at 10 hours after light onset for 14 days",significantly reduced
same,effect on growth of tumors,"EMT-6 cells [3]; mice, melatonin at the time when melatonin levels are peaking in healthy mice",potent inhibitory effect on growth of tumors
same,tumor volume fourteen days following PDT,EMT-6 cells [4]; EtNBS PDT plus ip bromocriptine and ip melatonin,significantly reduced or entirely eradicated
same,tumor volume fourteen days following PDT,"EMT-6 cells [4]; ip melatonin 8 mg/kg at 10 hours plus ip bromocriptine 50 mcg/mouse at 0 hours after light onset, no PDT",significantly reduced
hematoporphyrin [HPD],dermal photosensitization due to prolonged retention in the skin,[5],can persist for months
B1,tumor cure rate,"[1]; ip prolactin 20 mcg/mouse/day at 10 hours after light onset from day of inoculation, added to EtNBS PDT (50 mW/cm^2, 180 J)",100%
same,time at which the irradiated area has healed completely,[1]; [8],4 to 7 days
same,time to complete tumor eradication,[1]; [8],≤ 24 h
same,time to severe eschar formation,[1]; [8],≤ 24 h
same,treated animals exhibiting severe eschar formation,[1]; [8],100%
same,tumor cure rate,"[1]; mouse models, prolactin at the appropriate time interval combined with PDT",~100%
same,treated animals exhibiting severe eschar formation,[6]; ip ovine prolactin 20 mcg/mouse at 10 hours after light onset added to Dye 4-115 PDT,100%
same,time at which the irradiated area will heal completely,[6]; [9],4 to 7 days
same,time to complete tumor eradication,[6]; [9],≤ 24 h
same,time to severe eschar formation,[6]; [9],≤ 24 h
same,tumor burden,tumor burden,decreased tumor burden
same,increase in body fat levels,body fat stores; prolactin injections at midday of a 16-hour daily photoperiod,3 fold
same,reduction of fat stores,body fat stores; prolactin injections given early in the photoperiod,50%
same,effect on immune function,immune responses,immunostimulatory effect
